Experimental data published in ChEMBL document CHEMBL1201862, “PubChem BioAssay data set” (2004).
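Cultured in 96-well plates, cells were exposed to test compound for 48 hours across five concentrations. The concentration for 50% growth inhibition is given as GI50.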 Activity calls are given as the source filed them. Cut-off read from the data, not from the text of the source: active = GI50 up to about 1.1 µM and inactive = higher.

How the values were obtained:
Assay in all cases: NCI anticancer screen, dose series, 48 h
A498 = tested on: A498
CAKI-1 = tested on: CAKI-1
HCC 2998 = tested on: HCC 2998
IGROV-1 = tested on: IGROV-1
M14 = tested on: M14
MOLT-4 = tested on: MOLT-4
NCI-H226 = tested on: NCI-H226
OVCAR-3 = tested on: OVCAR-3
OVCAR-5 = tested on: OVCAR-5
OVCAR-8 = tested on: OVCAR-8
RXF 393 = tested on: RXF 393
SF-539 = tested on: SF-539
SK-MEL-28 = tested on: SK-MEL-28
SNB-75 = tested on: SNB-75
SW-620 = tested on: SW-620
UACC-257 = tested on: UACC-257
UO-31 = tested on: UO-31
HL-60 = tested on: HL-60

Measured: GI50

COc1cccc(/C=C2\CCC(C)(CN(C)C)C2=O)c1 (stereo unspecified)
inactive: A498 > 100 µM | CAKI-1 29.4 µM | HCC 2998 > 100 µM | IGROV-1 > 100 µM | M14 > 100 µM | MOLT-4 48.6 µM | NCI-H226 > 100 µM | OVCAR-3 > 100 µM | OVCAR-5 > 100 µM | OVCAR-8 > 100 µM | RXF 393 > 100 µM | SF-539 > 100 µM | SK-MEL-28 > 100 µM | SNB-75 > 100 µM | SW-620 57 µM | UACC-257 > 100 µM | UO-31 81.5 µM

CCOc1ccccc1NC(=O)CC1Sc2ccccc2NC1=O (stereo unspecified)
inactive: CAKI-1 95.7 µM | HCC 2998 > 100 µM | HL-60 23.9 µM | IGROV-1 45.5 µM | M14 45.8 µM | MOLT-4 41.5 µM | NCI-H226 > 100 µM | OVCAR-3 37.5 µM | OVCAR-5 > 100 µM | OVCAR-8 58.3 µM | RXF 393 > 100 µM | SF-539 62.7 µM | SK-MEL-28 > 100 µM | SNB-75 31.2 µM | SW-620 49.2 µM | UACC-257 > 100 µM | UO-31 61.1 µM

CN1C(c2ccccc2)CC(=Nc2ccccc2)CC1c1ccccc1 (stereo unspecified)
inactive: CAKI-1 17.5 µM | HL-60 2.61 µM | IGROV-1 12.6 µM | M14 13.5 µM | MOLT-4 7.13 µM | NCI-H226 11.7 µM | OVCAR-3 8.93 µM | OVCAR-8 6.97 µM | RXF 393 16.6 µM | SK-MEL-28 10.8 µM | SNB-75 16.7 µM | SW-620 10.8 µM | UACC-257 10.4 µM | UO-31 20.7 µM

CN(C)c1cccc(OC(=O)NCCCl)c1
inactive: A498 > 100 µM | CAKI-1 > 100 µM | HCC 2998 > 100 µM | HL-60 > 100 µM | IGROV-1 > 100 µM | MOLT-4 > 100 µM | NCI-H226 > 100 µM | OVCAR-3 > 100 µM | OVCAR-5 > 100 µM | OVCAR-8 > 100 µM | SF-539 > 100 µM | SK-MEL-28 > 100 µM | SNB-75 63.8 µM | SW-620 > 100 µM | UACC-257 > 100 µM | UO-31 > 100 µM

Cc1cc(/N=N/c2ccc(/N=N/c3c(O)c(S(=O)(=O)O)cc4cc(S(=O)(=O)O)ccc34)cc2C)ccc1/N=N/c1ccc2cc(S(=O)(=O)O)cc(S(=O)(=O)O)c2c1
inactive: A498 > 100 µM | HCC 2998 > 100 µM | HL-60 > 100 µM | IGROV-1 > 100 µM | MOLT-4 > 100 µM | NCI-H226 > 50.2 µM | OVCAR-3 > 100 µM | OVCAR-5 > 100 µM | OVCAR-8 > 31.6 µM | RXF 393 > 100 µM | SF-539 > 100 µM | SK-MEL-28 > 100 µM | SNB-75 > 100 µM | SW-620 > 100 µM | UACC-257 > 100 µM | UO-31 > 100 µM

N#CNCC(COCc1ccccc1)c1ccccc1 (stereo unspecified)
inactive: A498 > 100 µM | HCC 2998 > 100 µM | HL-60 61.4 µM | IGROV-1 > 100 µM | M14 > 100 µM | MOLT-4 71.1 µM | NCI-H226 98.4 µM | OVCAR-8 > 100 µM | RXF 393 99.1 µM | SF-539 > 100 µM | SK-MEL-28 > 100 µM | SNB-75 41.9 µM | SW-620 70.5 µM | UO-31 46.1 µM

CN(/N=N/c1[nH]cnc1C(N)=O)C1CCCCC1
inactive: A498 > 100 µM | HCC 2998 > 100 µM | HL-60 29.5 µM | IGROV-1 > 100 µM | M14 72.9 µM | MOLT-4 49.1 µM | NCI-H226 > 100 µM | OVCAR-3 75.7 µM | OVCAR-5 > 100 µM | OVCAR-8 36.9 µM | RXF 393 > 100 µM | SF-539 > 100 µM | SK-MEL-28 > 100 µM | SNB-75 34.6 µM | SW-620 69 µM | UACC-257 62.1 µM

CCOC(=O)C(Sc1ccccc1)c1c(OC)cc(=O)oc1/C=[N+](/[O-])c1ccc(N(C)C)cc1 (stereo unspecified)
inactive: A498 52.7 µM | CAKI-1 14.9 µM | HCC 2998 23.9 µM | IGROV-1 42.4 µM | M14 16.2 µM | MOLT-4 13.8 µM | OVCAR-3 13.2 µM | OVCAR-5 46 µM | OVCAR-8 18.4 µM | RXF 393 16.2 µM | SF-539 24.4 µM | SK-MEL-28 17.5 µM | SNB-75 31.3 µM | SW-620 14.7 µM | UACC-257 14.6 µM | UO-31 18.5 µM
